According to patent US20020091265A1, “4-phenyl-pyridine derivatives” (priority 1999, published 2002):
Counter-ions that a name gives are not always drawn. Blank lines part the entries; values can stand above or below the compound they belong to.

Experiments:
human NK1 receptor [1] = target: T1, human NK1 receptor (Homo sapiens, UniProt P25103); assay: [3H]substance P binding at human NK1 receptors in CHO cells; conditions: [3H]substance P 0.6 nM, 60 min room temperature, read-out: affinity (pKi) for the human NK1 receptor (converted)
T1 sequence (P25103 whole entry): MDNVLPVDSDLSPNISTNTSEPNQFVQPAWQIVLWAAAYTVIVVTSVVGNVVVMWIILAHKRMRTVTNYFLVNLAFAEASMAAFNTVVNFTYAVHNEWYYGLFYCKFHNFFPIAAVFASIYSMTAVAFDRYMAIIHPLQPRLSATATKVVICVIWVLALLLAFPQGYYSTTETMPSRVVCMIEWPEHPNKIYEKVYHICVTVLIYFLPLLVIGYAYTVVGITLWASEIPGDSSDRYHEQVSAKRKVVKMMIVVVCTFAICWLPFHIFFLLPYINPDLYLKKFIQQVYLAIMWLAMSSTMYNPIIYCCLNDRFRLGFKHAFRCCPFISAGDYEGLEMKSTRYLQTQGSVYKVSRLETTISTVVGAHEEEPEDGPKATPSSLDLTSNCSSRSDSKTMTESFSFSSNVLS
Experimental: All assays were performed in triplicate in at least2 separate experiments.

NK2 receptors = target: T2, NK2 receptors (Homo sapiens, UniProt P21452); assay: Selectivity for NK1 compared to NK2 receptors; type: binding
T2 sequence (P21452 1-398): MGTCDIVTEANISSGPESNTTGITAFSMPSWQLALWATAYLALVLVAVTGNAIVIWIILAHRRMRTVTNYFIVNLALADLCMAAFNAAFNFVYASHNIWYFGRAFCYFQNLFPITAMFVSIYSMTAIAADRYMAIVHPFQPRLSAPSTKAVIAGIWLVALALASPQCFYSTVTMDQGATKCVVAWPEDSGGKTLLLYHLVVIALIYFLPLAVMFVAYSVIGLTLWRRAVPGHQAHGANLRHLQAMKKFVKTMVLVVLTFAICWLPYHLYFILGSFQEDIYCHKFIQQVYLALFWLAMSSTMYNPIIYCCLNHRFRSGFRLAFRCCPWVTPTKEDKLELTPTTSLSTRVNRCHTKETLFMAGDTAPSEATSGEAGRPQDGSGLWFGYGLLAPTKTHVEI

NK3 receptors = target: T3, NK3 receptors (Homo sapiens, UniProt P29371); assay: Selectivity for NK1 compared to NK3 receptors; type: binding
T3 sequence (P29371 1-465): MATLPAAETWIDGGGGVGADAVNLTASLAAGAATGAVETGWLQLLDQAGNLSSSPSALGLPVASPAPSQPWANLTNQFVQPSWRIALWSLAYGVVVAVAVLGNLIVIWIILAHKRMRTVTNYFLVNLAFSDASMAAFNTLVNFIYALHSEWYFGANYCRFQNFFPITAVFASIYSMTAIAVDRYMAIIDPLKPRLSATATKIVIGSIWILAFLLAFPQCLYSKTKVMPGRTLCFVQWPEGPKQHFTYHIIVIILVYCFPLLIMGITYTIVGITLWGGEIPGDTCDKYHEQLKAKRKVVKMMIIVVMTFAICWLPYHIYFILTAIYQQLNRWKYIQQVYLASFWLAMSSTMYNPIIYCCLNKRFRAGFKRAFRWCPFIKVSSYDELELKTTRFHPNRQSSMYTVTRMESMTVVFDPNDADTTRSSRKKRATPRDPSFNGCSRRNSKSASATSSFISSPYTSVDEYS

[2] = tested on: over 50 other binding sites; assay: Selectivity for NK1 compared to over 50 other binding sites
[3] = tested on: foot-tapping behaviour induced in gerbils with an NK1 receptor agonist; assay: Foot-tapping behaviour induced by i.c.v. NK1 receptor agonist; type: in vivo, gerbil; conditions: for dose calculated to inhibit 50% of the foot-tapping behaviour: oral administration
Experimental: (§1) In vivo the compound of formula Ia antagonises foot-tapping behaviour induced in gerbils with intracerebroventricular (i.c.v.) injections of an NK1 receptor agonist. The dose for this compound calculated to inhibit 50% of the foot-tapping behaviour following oral administration was 0.2 mg/kg.
as §1, with “2-(3,5-bis-trifluoromethyl-phenyl)-N-methyl-N-[6-(4-methyl-piperazin-1-yl)-4-o-tolyl-pyridin-3-yl]-isobutyramide” for “the compound of formula Ia”, “Gerbils” for “gerbils”, “of” for “for”, “0.5” for “0.2”
In vivo the compound of formula Ic antagonises foot-tapping behaviour induced in Gerbils with intracerebroventricular (i.c.v.) injections of an NK1 receptor agonist. The dose of this compound calculated to inhibit 50% of the foot-tapping behaviour following oral administration was 1.5 mg/kg.

[4] = tested on: emesis induced in ferrets by emetogens; assay: Antiemetic test in ferrets; type: in vivo, ferret; conditions: for emesis induced by all emetogens (apomorphine, morphine, ipecacuanha, cisplatin, CuSO4): 0.3 mg/kg p.o., 2 hours before the emetogen
Experimental: The compound of formula 1a, 2-(3,5-Bis-trifluoromethyl-phenyl)-N-methyl-N-(6-morpholin-4-yl-4-o-tolyl-pyridin-3-yl)-isobutyramide, was also tested as an antiemetic agent in ferrets.
2-(3,5-bis-trifluoromethyl-phenyl)-N-methyl-N-[6-(4-methyl-piperazin-1-yl)-4-o-tolyl-pyridin-3-yl]-isobutyramide was also tested as an antiemetic agent in Ferrets.

[5] = Pharmacokinetic parameters in rats; conditions: rat, in vivo; for bioavailability: po; for half-life: read-out: terminal half-life (converted); for Vd: read-out: volume of distribution
in vivo = conditions: dog; for bioavailability: po
human NK1 receptor [6] = target: T1, human NK1 receptor; assay: Substance P induced Ca2+ influx in CHO cells (FLIPR); type: cell-based; design: expressed in transfected cells; host or cells: CHO cells; conditions: for effect on substance P induced Ca2+ influxes: CHO cells expressing recombinant human NK1 receptor, FLIPR; for type of antagonism at human recombinant NK1 receptors: from Ca2+ influx data
From the text: (§2) The activity in vitro of the compound of formula 1a was examined by studying its effect on substance P induced Ca^2+ influxes in CHO cells expressing the recombinant human NK1 receptor. In these cells, substance P causes a concentration dependent influx of Ca^2+ which can be measured using FLIPR technology.
The activity of 2-(3,5-bis-trifluoromethyl-phenyl)-N-methyl-N-[^6-(^4-methyl-piperazin-1-yl)-4-o-tolyl-pyridin-3-yl]-isobutyramide in vitro was examined by studying its effect on substance P induced Ca^2+influxes in CHO cells expressing the recombinant human NK1 receptor. In these cells, substance P causes a concentration dependent influx of Ca^2+ which can be measured using FLIPR technology.
as §2, with “activity” for “activity in vitro”, “Ic in vitro” for “1a”

[7] = tested on: motion sickness in the suncus murinus; assay: Model of motion sickness in suncus murinus; type: in vivo; conditions: po

- melting point: 174 to 175 °C
SMILES: Cc1ccccc1-c1cc(N(C)C)ncc1N(C)C(=O)C(C)(C)c1cc(C(F)(F)F)cc(C(F)(F)F)c1 (as salt: hydrochloride) [Example 29, 2-(3,5-Bis-trifluoromethyl-phenyl)-N-(6-dimethylamino-4-o-tolyl-pyridin-3-yl)-N-methyl-isobutyramide]

SMILES: Cc1ccccc1-c1cc(N2CCOCC2)ncc1N(C)C(=O)C(C)(C)c1cc(C(F)(F)F)cc(C(F)(F)F)c1 (as salt: hydrochloride) [Ia, 2-(3,5-bis-trifluoromethyl-phenyl)-N-methyl-N-(6-morpholin-4-yl-4-o-tolyl-pyridin-3-yl)-isobutyramide]
- melting point: 73.5 to 76 °C

- melting point: 186 to 188 °C
SMILES: CN(C(=O)C(C)(C)c1cc(C(F)(F)F)cc(C(F)(F)F)c1)c1cnccc1-c1ccccc1Cl (as salt: hydrochloride) [Ic, 2-(3,5-Bis-trifluoromethyl-phenyl)-N-[4-(2-chloro-phenyl)-pyridin-3-yl]-N-methyl-isobutyramide]

- Ki (human NK1 receptor [1]): 3.39 nM
SMILES: Cc1ccccc1-c1ccncc1N(C)C(=O)C(C)(C)c1cc(C(F)(F)F)cc(C(F)(F)F)c1 [Example 18, 2-(3,5-Bis-trifluoromethyl-phenyl)-N-methyl-N-(4-o-tolyl-pyridin-3-yl)-isobutyramide Hydrochloride (1:1)]

- Ki (human NK1 receptor [1]): 2 nM
SMILES: Cc1ccccc1-c1cc(N(C)CCN2CCOCC2)ncc1N(C)C(=O)C(C)(C)c1cc(C(F)(F)F)cc(C(F)(F)F)c1 [Example 25, 2-(3,5-Bis-trifluoromethyl-phenyl)-N-methyl-N-{6-[methyl-(2-morpholin-4-yl-ethyl)-amino]-4-o-tolyl-pyridin-3-yl}-isobutyramide]

- Ki (human NK1 receptor [1]): 1 nM
SMILES: Cc1ccccc1-c1cc(N2CCNCC2)ncc1N(C)C(=O)C(C)(C)c1cc(C(F)(F)F)cc(C(F)(F)F)c1 [Example 31, 2-(3,5-Bis-trifluoromethyl-phenyl)-N-methyl-N-(6-piperazin-1-yl-4-o-tolyl-pyridin-3-yl)-isobutyramide]

- Ki (human NK1 receptor [1]): 0.288 nM
SMILES: Cc1ccccc1-c1cc(N2CCN(Cc3n[nH]c(=O)[nH]3)CC2)ncc1C(=O)N(C)Cc1cc(C(F)(F)F)cc(C(F)(F)F)c1 [Example 58, N-(3,5-Bis-trifluoromethyl-benzyl)-N-methyl-6-[4-(5-oxo-4,5-dihydro-1H-[1,2,4]triazol-3-ylmethyl)-piperazin-1-yl]-4-o-tolyl-nicotinamide]

- melting point: 130 to 140 °C (dec.)
SMILES: CC(C)c1cc(Cl)ncc1C(=O)NC(C)(C)C [Example 83, N-tert-Butyl-6-chloro-4-(prop-2-yl)-nicotinamide]

- melting point: 168 to 173 °C
SMILES: CC(C)(C)NC(=O)c1cnc(Cl)cc1-c1ccc(F)cc1 [Example 84, N-tert.-Butyl-6-chloro-4-p-fluoro-phenyl-nicotinamide]

SMILES: Cc1ccccc1-c1cc(N2CCOCC2)ncc1N(C)C(=O)C(C)(C)c1cc(C(F)(F)F)cc(C(F)(F)F)c1 [Ia, 2-(3,5-bis-trifluoromethyl-phenyl)-N-methyl-N-(6-morpholin-4-yl-4-o-tolyl-pyridin-3-yl)-isobutyramide]
- Ki (human NK1 receptor [1]): 1 nM
- selectivity for the NK1 receptor compared to NK2 receptors (NK2 receptors): over 2 orders of magnitude
- selectivity for the NK1 receptor compared to NK3 receptors (NK3 receptors): over 2 orders of magnitude
- selectivity for the NK1 receptor compared to over 50 other binding sites [2]: over 2 orders of magnitude
- dose calculated to inhibit 50% of the foot-tapping behaviour [3]: 0.2 mg/kg
- emesis induced by all emetogens (apomorphine, morphine, ipecacuanha, cisplatin, CuSO4) [4]: completely blocked
- clearance [5]: 4 mL/min/kg
- bioavailability [5]: 50%
- half-life [5]: 23 h
- Vd [5]: 8 L/kg
- Vd (in vivo): 22 L/kg
- clearance (in vivo): 16 mL/min/kg
- half-life (in vivo): 40 h
- bioavailability (in vivo): 30 to 40%
- effect on substance P induced Ca2+ influxes (human NK1 receptor [6]): rightward shift in the concentration effect curve of substance P
- type of antagonism at human recombinant NK1 receptors (human NK1 receptor [6]): competitive antagonist
- slope of the Schild regression (human NK1 receptor [6]; substance P induced Ca2+ influx, CHO cells): 1.1

- Ki (human NK1 receptor [1]): 1 nM
- selectivity for the NK1 receptor compared to NK2 receptors (NK2 receptors): over 2 orders of magnitude
- selectivity for the NK1 receptor compared to NK3 receptors (NK3 receptors): over 2 orders of magnitude
- selectivity for the NK1 receptor compared to over 50 other binding sites [2]: over 2 orders of magnitude
- clearance [5]: 3.7 mL/min/kg
- bioavailability [5]: 45%
- half-life [5]: 24 h
- Vd [5]: 5.7 L/kg
- Vd (in vivo): 15 L/kg
- clearance (in vivo): 9.2 mL/min/kg
- half-life (in vivo): 18 h
- bioavailability (in vivo): 75%
- type of antagonism at human recombinant NK1 receptors (human NK1 receptor [6]): competitive antagonist
SMILES: Cc1ccccc1-c1cc(N2CCN(C)CC2)ncc1N(C)C(=O)C(C)(C)c1cc(C(F)(F)F)cc(C(F)(F)F)c1 [Ib, 2-(3,5-bis-trifluoromethyl-phenyl)-N-methyl-N-[6-(4-methyl-piperazin-1-yl)-4-o-tolyl-pyridin-3-yl]-isobutyramide]
- total plasma concentration required to completely block the foot-tapping behaviour [3]: 30 ng/mL
- dose calculated to inhibit 50% of the foot-tapping behaviour [3]: 0.5 mg/kg
- emesis induced by all emetogens (apomorphine, morphine, ipecacuanha, cisplatin, CuSO4) [4]: completely blocked
- ED50 ([4]; Mustela putorius, po, read-out: ED50 against apomorphine-induced emesis): 0.1 mg/kg
- ED50 [7]: 0.2 mg/kg
- effect on substance P induced Ca2+ influxes (human NK1 receptor [6]): inhibited this effect in a concentration dependent manner

- Ki (human NK1 receptor [1]): 2.51 nM
- selectivity for the NK1 receptor compared to NK2 receptors (NK2 receptors): over 2 orders of magnitude
- selectivity for the NK1 receptor compared to NK3 receptors (NK3 receptors): over 2 orders of magnitude
- selectivity for the NK1 receptor compared to over 50 other binding sites [2]: over 2 orders of magnitude
- clearance [5]: 45 mL/min/kg
- bioavailability [5]: ~30%
- half-life [5]: 11 h
- Vd [5]: 2.6 L/kg
- Vd (in vivo): 4.5 L/kg
- clearance (in vivo): 30 mL/min/kg
- half-life (in vivo): 3.5 h
- bioavailability (in vivo): 16%
- type of antagonism at human recombinant NK1 receptors (human NK1 receptor [6]): competitive antagonist
SMILES: CN(C(=O)C(C)(C)c1cc(C(F)(F)F)cc(C(F)(F)F)c1)c1cnccc1-c1ccccc1Cl [Ic, 2-(3,5-Bis-trifluoromethyl-phenyl)-N-[4-(2-chloro-phenyl)-pyridin-3-yl]-N-methyl-isobutyramide]
- total plasma concentration required to completely block the foot-tapping behaviour [3]: 100 ng/mL
- dose calculated to inhibit 50% of the foot-tapping behaviour [3]: 1.5 mg/kg
- effect on substance P induced Ca2+ influxes (human NK1 receptor [6]): inhibited this effect in a concentration dependent manner
